Results from patent US20150105252A1, “SUBSTITUTED PYRAZOLES AS HERBICIDES” (E I DU PONT DE NEMOURS AND COMPANY, priority 2013, published 2015).

How the values were obtained:
rice = experiment: Test B flood; assay type: in vivo, Oryza sativa; settings: 250 g ai/ha, visual rating on 0 to 100 scale (0 no effect, 100 complete control), 13 to 15 days
In short: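 Flooded-pot test: compound dosed into 3 cm of standing water above soil when plants had two leaves. Visual control ratings (0–100) versus untreated plants after 13–15 d.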

wheat = experiment: Test A preemergence; assay type: in vivo, Triticum aestivum; settings: preemergence; for Wheat plant response rating (0 to 100 scale): visual injury approx. 10 days after treatment
In short: (§1)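 Growth medium: loam soil blended with sand. Preemergence treatment used a directed soil spray right after planting; postemergence treatment targeted seedlings at one to two leaves (2–10 cm height). Response was judged by eye relative to untreated plants about 10 days later on a 0–100 control scale.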

pigweed = experiment: Test A postemergence; assay type: in vivo, Amaranthus retroflexus
In short: as §1

galium = experiment: Test C preemergence; assay type: in vivo, Galium aparine
In short: (§2)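 Greenhouse pot test: preemergence application onto freshly seeded loam/sand mix, postemergence application onto seedlings (1–4 leaves, 2–18 cm) in peat-vermiculite substrate. Responses scored visually 13 to 15 days later relative to controls, where 0 means no effect and 100 means complete control; a dash indicates no result.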

foxtail, giant = experiment: Test A preemergence; assay type: in vivo, Setaria faberii; settings: preemergence; for Foxtail, Giant plant response rating (0 to 100 scale): visual injury approx. 10 days after treatment
In short: as §1

corn [1] = experiment: Test C preemergence; assay type: in vivo, Zea mays
In short: as §2

crabgrass, large = experiment: Test A preemergence; assay type: in vivo, Digitaria sanguinalis; settings: preemergence; for Crabgrass, Large plant response rating (0 to 100 scale): visual injury approx. 10 days after treatment
In short: as §1

corn [2] = experiment: Test A postemergence; assay type: in vivo, Zea mays
In short: as §1

velvetleaf = experiment: Test A preemergence; assay type: in vivo, Abutilon theophrasti; settings: preemergence; for Velvetleaf plant response rating (0 to 100 scale): visual injury approx. 10 days after treatment
In short: as §1

ragweed = experiment: Test C preemergence; assay type: in vivo, Ambrosia elation
In short: as §2

[3] = 500 g ai/ha, visual injury after approx. 10 days, 0 to 100 scale (0 no effect, 100 complete control)
[4] = Postemergence, 500 g ai/ha, 0 to 100 scale (0 no effect, 100 complete control)
[5] = postemergence, 125 g ai/ha, about 10 days, visual rating on 0 to 100 scale (0 no effect, 100 complete control)
[6] = preemergence, 31 g ai/ha, visual rating, scale 0 to 100 (0 no effect, 100 complete control), 13 to 15 days
[7] = preemergence, 62 g ai/ha, scale 0 to 100 (0 no effect, 100 complete control), 13 to 15 days
[8] = preemergence, 125 g ai/ha, 13 to 15 days, scale 0 to 100, 0 = no effect, 100 = complete control
[9] = preemergence, 250 g ai/ha, scale 0 to 100, 0 is no effect, 100 is complete control
[10] = Preemergence, 16 g ai/ha, scale 0 to 100
[11] = 125 g ai/ha, visual injury, 0 to 100 scale, approx. 10 days
[12] = Preemergence, 4 g ai/ha, scale 0 to 100
[13] = Preemergence, 8 g ai/ha, scale 0 to 100

Row | Structure (SMILES) | Plant response rating, Rice (rice) | Wheat plant response rating (0 to 100 scale) (wheat; 125 g ai/ha) | Wheat plant response rating (wheat; [3]) | Pigweed plant response rating (pigweed; [4]) | Pigweed plant response rating (pigweed; [5]) | Galium plant response rating (galium; [6]) | Galium plant response rating (galium; [7]) | Plant response rating, Galium (galium; [8]) | Foxtail, Giant plant response rating (0 to 100 scale) (foxtail, giant; 125 g ai/ha) | Foxtail, Giant plant response rating (foxtail, giant; [3]) | Corn plant response rating (corn [1]; [6]) | Corn plant response rating (corn [1]; [7]) | Plant response rating, Corn (corn [1]; [8]) | Crabgrass, Large plant response rating (0 to 100 scale) (crabgrass, large; 125 g ai/ha) | Crabgrass, Large plant response rating (crabgrass, large; [3]) | Corn plant response rating (corn [2]; [4]) | Corn plant response rating (corn [2]; [5]) | Velvetleaf plant response rating (0 to 100 scale) (velvetleaf; 125 g ai/ha) | Velvetleaf plant response rating (velvetleaf; [3]) | Ragweed plant response rating (ragweed; [6]) | other results
1 | O=C(NC1CC1)c1cc(CCF)n(Cc2ccnc(C(F)(F)F)c2)n1 [Compound 176] | 0 | 20 | 90 | 100 | 100 | 85 | 85 | 98 | 90 | 100 | 5 | 5 | 90 | 100 | 100 | 80 | 40 | 50 | 90 | 85 | Galium plant response rating (galium; [9]): 100; Corn plant response rating (corn [1]; [9]): 90; Ragweed plant response rating (ragweed; [7]): 100; Plant response rating, Ragweed (ragweed; [8]): 100; Ragweed plant response rating (ragweed; [9]): 95
2 | O=C(NCC(F)(F)F)c1cc(CCF)n(Cc2ccnc(C(F)(F)F)c2)n1 [Compound 175] | 25 | 20 | 100 | 100 | 100 | 85 | 100 | 100 | 100 | 100 | 20 | 30 | 85 | 100 | 100 | 90 | 60 | 40 | 100 | 80 | Galium plant response rating (galium; [9]): 100; Corn plant response rating (corn [1]; [9]): 90; Ragweed plant response rating (ragweed; [7]): 90; Plant response rating, Ragweed (ragweed; [8]): 98; Ragweed plant response rating (ragweed; [9]): 95
3 | CCNC(=O)c1cc(CCF)n(Cc2ccnc(C(F)(F)F)c2)n1 [Compound 178] | 0 | 0 | 30 | 100 | 100 | 90 | 90 | 95 | 90 | 100 | 5 | 5 | 25 | 100 | 100 | 90 | 10 | 30 | 90 | 70 | Plant response rating, Galium (galium; [10]): 70; Plant response rating, Corn (corn [1]; [10]): 5; Plant response rating, Ragweed (ragweed; [10]): 60; Ragweed plant response rating (ragweed; [7]): 85; Plant response rating, Ragweed (ragweed; [8]): 90
4 | CCCc1cc(C(=O)NOC(C)C)nn1Cc1cc(C(F)(F)F)nn1C [Compound 203] | 0 | 80 | – | 100 | – | 100 | 100 | 100 | 80 | 100 | 5 | 50 | 75 | 100 | 100 | 100 | 50 | 30 | – | 75 | Pigweed plant response rating (pigweed; Postemergence, 125 g ai/ha, 0 to 100 scale, 0 no effect, 100 complete control): 90; Galium plant response rating (galium; [9]): 100; Corn plant response rating (corn [1]; [9]): 98; Ragweed plant response rating (ragweed; [7]): 80; Plant response rating, Ragweed (ragweed; [8]): 98; Ragweed plant response rating (ragweed; [9]): 100
5 | CCOc1cc(C(=O)NCC(F)(F)F)nn1Cc1cc(C(F)(F)F)nn1C [Compound 140] | 40 | – | 100 | 100 | 100 | 100 | – | – | – | 100 | 10 | – | – | – | 100 | 80 | 50 | – | 100 | 70 | Wheat plant response rating (wheat; [11]): 70; Plant response rating, Galium (galium; [12]): 50; Plant response rating, Galium (galium; [13]): 60; Plant response rating, Galium (galium; [10]): 98; Foxtail, Giant plant response rating (foxtail, giant; [11]): 100; Plant response rating, Corn (corn [1]; [12]): 0; Plant response rating, Corn (corn [1]; [13]): 0; Plant response rating, Corn (corn [1]; [10]): 0; Crabgrass, Large plant response rating (crabgrass, large; [11]): 100; Velvetleaf plant response rating (velvetleaf; [11]): 60; Plant response rating, Ragweed (ragweed; [12]): 5; Plant response rating, Ragweed (ragweed; [13]): 5; Plant response rating, Ragweed (ragweed; [10]): 25
